Laboratory results taken from publication PMC10840383, “Clinical features, functional consequences, and rescue pharmacology of missense GRID1 and GRID2 human variants” (Human Molecular Genetics, 2023).

Assays:
Type in all cases: cell-based
GluD1-N651S = molecular target: T1, GluD1-N651S (Homo sapiens, UniProt Q9ULK0, N651S); assay: TEVC of constitutive current, Xenopus oocytes expressing GluD1-N651S; details: positive = increase, negative = decrease of activity
T1 construct: expressed in transfected cells; host or cells: Xenopus laevis oocytes injected with cRNA
T1 sequence (Q9ULK0 21-1009 N651S): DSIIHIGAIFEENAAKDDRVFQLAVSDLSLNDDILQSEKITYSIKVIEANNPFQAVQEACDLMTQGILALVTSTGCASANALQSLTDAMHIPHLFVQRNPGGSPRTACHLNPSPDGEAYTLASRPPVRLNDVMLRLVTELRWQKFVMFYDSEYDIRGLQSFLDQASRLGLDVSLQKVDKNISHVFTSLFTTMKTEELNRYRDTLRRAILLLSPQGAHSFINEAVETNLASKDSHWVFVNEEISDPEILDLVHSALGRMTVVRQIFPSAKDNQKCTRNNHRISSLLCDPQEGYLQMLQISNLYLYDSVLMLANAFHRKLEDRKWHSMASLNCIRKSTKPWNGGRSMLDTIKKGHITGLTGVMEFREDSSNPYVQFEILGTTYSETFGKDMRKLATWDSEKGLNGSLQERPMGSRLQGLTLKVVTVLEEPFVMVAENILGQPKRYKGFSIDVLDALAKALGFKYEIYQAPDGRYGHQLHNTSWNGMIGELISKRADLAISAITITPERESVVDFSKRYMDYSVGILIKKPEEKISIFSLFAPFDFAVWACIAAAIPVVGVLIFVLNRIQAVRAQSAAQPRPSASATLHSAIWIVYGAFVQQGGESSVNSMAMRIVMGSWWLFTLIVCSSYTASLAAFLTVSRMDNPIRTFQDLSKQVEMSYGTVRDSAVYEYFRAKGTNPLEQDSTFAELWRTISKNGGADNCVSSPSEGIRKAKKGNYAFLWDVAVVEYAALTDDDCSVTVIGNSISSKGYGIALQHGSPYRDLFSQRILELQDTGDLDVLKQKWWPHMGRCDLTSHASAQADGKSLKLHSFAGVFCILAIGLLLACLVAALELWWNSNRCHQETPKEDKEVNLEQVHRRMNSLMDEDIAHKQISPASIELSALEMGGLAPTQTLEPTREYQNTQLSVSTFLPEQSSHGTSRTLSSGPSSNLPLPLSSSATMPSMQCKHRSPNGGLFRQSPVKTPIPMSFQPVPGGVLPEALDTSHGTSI

[1] = test system: constitutively active GluD1 and GluD2 receptor variants; assay: Inhibition of constitutive currents of GluD variants by channel blockers, Xenopus oocytes
Procedure: Xenopus laevis oocytes were prepared from ovaries purchased from Xenopus 1 (Dexter, MI) as previously described, [68] and incubated at 16°C in culture Barth’s solution (in mM) 88 NaCl, 2.4 NaHCO3, 1 KCl, 0.33 Ca(NO3)2, 0.41 CaCl2, 0.82 MgSO4, 10 HEPES, pH 7.4 with NaOH, supplemented with 1 U/ml penicillin and 1 μg/ml streptomycin. Oocytes were injected with approximately 5–40 ng RNA per oocyte and then incubated at 16–19°C for 1–3 days in culture Barth’s solution. The levels of GluD2-A654D and GluD2-A654T cRNA were reduced to 1.5 ng and 2.5 ng, respectively, due to oocyte toxicity. Two-electrode voltage clamp (TEVC) recordings were performed as previously described. Unless otherwise specified, extracellular solution contained (in mM) 90 NaCl, 3 KCl, 0.5 BaCl2, 0.01 EDTA, 10 HEPES, and was brought to pH 7.4 with NaOH. The oocytes were placed in a dual track recording chamber and gravity perfused with solution exchange controlled via a computer-driven 8-valve positioner (Digital MVP Valve). […] Recording electrodes were filled with 0.3 M KCl, and currents were recorded with membrane voltage held at −40 mV. To establish constitutive activity of recombinant receptors when compared to wild type receptors, we used the oocyte recording solution described above, but with 90 mM N-methyl-D-glucamine (NMDG) chloride replacing 90 mM NaCl. […] In addition to establishing constitutive activity, 90 mM NMDG was used in recording protocols with drug treatment to obtain the percent maximum theoretical inhibition of a compound, or to determine the relative degree of drug potentiation. For Ca^2+ concentration-response curves, choline chloride was used to maintain equimolar concentrations of Cl^− ions in the extracellular solution across the changing concentrations of calcium chloride. All compounds used in this study for concentration-response oocyte recordings were dissolved in deionized water as 50–100 mM stock solutions. In some rescue pharmacology experiments, we substituted 1 mM CaCl2 for 0.5 mM BaCl2 to evaluate Ca^2+-dependent control of receptor responses.

GluD2-WT = molecular target: T2, GluD2-WT (Rattus norvegicus, UniProt Q63226); assay: TEVC of constitutive current, Xenopus oocytes expressing GluD2-WT
T2 construct: expressed in transfected cells; host or cells: Xenopus laevis oocytes injected with cRNA
T2 sequence (Q63226 24-1007): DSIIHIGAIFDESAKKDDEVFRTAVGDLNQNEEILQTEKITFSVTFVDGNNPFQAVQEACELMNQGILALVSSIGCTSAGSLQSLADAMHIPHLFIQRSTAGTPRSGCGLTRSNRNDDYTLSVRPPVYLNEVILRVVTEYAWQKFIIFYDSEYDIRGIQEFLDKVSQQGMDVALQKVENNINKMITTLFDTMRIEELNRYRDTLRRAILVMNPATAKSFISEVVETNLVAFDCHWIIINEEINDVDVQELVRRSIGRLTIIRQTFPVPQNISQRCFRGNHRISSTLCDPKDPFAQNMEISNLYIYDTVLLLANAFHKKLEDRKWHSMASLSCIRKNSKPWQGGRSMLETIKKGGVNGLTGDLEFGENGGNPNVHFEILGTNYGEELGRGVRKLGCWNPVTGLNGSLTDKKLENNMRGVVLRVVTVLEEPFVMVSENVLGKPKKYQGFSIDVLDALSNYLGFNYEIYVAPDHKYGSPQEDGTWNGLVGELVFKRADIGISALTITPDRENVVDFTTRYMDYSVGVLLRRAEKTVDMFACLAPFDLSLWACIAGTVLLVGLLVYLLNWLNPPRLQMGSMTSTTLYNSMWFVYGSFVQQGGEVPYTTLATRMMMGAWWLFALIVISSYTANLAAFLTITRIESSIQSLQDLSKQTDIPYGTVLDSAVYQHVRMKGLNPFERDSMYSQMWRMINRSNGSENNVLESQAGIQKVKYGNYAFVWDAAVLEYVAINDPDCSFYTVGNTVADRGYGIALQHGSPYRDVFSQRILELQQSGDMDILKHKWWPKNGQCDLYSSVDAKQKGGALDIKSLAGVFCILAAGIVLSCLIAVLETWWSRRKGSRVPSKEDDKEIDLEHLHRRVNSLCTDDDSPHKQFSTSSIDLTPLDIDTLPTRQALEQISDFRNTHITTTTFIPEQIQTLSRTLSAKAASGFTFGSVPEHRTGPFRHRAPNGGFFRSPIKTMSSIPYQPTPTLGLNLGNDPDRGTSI

| D-Serine effect (Baseline −10 mM D-Serine) (GluD1-N651S; 10 mM D-serine) | Effect on difference current, in words (GluD2-WT; 10 mM D-serine) | D-Serine effect (Baseline −10 mM D-Serine) (GluD2-WT; 10 mM D-serine, positive = increase, negative = decrease of activity) | SMILES | Pentamidine effect (Baseline −100 μM Pentamidine) (GluD1-N651S; 100 μM pentamidine) | Inhibition of constitutive currents, in words [1] | Pentamidine effect (Baseline −100 μM Pentamidine) (GluD2-WT; 100 μM pentamidine, positive = increase, negative = decrease of activity) |
| --- | --- | --- | --- | --- | --- | --- |
|  |  |  | N=C(N)c1ccc(OCCCCCOc2ccc(C(=N)N)cc2)cc1 [Pentamidine, pentamidine] | 38 ± 8.3 (10) nA | inhibits | 3.6 ± 4.8 (14) nA |
|  |  |  | CC12CC3CC(C)(C1)CC(N)(C3)C2 [Memantine, memantine] |  | more effectively than ketamine |  |
| 7.6 ± 1.6 (10) nA | minimal activity | −3.6 ± 1.0 (14) nA | N[C@H](CO)C(=O)O [D-serine] |  |  |  |
